Assay results published in BindingDB's records for doi:10.1021/jm00398a021 (Bristol-Myers, 1988).
pIC50: −log10 of the molar value.

Biological target: D(2) dopamine receptor (Rattus norvegicus, UniProt P61169)
Test: ChEBML_58532
Source text: Ability to inhibit [3H]spiperone binding to Dopamine receptor D2 in rat corpus striatum

Sequence of D(2) dopamine receptor (P61169 whole entry): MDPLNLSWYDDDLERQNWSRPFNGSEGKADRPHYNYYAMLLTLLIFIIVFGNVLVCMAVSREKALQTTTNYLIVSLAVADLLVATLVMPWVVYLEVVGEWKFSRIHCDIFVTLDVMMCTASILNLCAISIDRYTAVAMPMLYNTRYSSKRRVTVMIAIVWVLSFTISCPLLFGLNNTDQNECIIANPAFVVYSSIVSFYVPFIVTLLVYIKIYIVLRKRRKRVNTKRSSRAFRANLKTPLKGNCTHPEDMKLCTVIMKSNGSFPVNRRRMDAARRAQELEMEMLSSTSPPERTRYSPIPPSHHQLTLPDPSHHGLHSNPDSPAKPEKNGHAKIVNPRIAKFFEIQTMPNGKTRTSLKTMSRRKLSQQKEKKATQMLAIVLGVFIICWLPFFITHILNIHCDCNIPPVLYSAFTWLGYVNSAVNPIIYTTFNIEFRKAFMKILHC

- pIC50: < 6.00
Compound: O=c1scc(O)n1CCCCN1CCN(c2ccccn2)CC1
